Experimental data from patent US12492173B2, “Herbicidal substituted N-tetrazolyl aryl carboxamides” (Bayer Aktiengesellschaft, priority 2019, dated 2025).

Columns and labels:
Assay type in all cases: in vivo
Setaria viridis = experiment: Pre-emergence herbicidal action, SETVI; conditions: dosage 320 g/ha, scored visually after 3 weeks vs untreated controls (100% = plants have died)
Procedure, shortened: (§1)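 Visual scoring after 3 weeks in the greenhouse, relative to untreated pots, gave percent activity, where 100% means dead plants and 0% equals controls. Treatment was a pre-emergence soil-surface spray of WP or EC formulations in water (600 to 800 l/ha, 0.2% wetting agent) over seeds covered in sandy loam.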

Veronica persica = experiment: Pre-emergence herbicidal action, VERPE; set-up: key to Herbicidal action against VERPE: % activity: 100 = plants have died, 0 = like control plants; conditions: for herbicidal activity VERPE: scored visually after 3 weeks vs untreated controls (100% = plants have died)
Procedure, shortened: as §1

Alopecurus myosuroides = experiment: Post-emergence herbicidal action, ALOMY; set-up: key: % herbicidal action vs untreated; 100 = plants died, 0 = like control
Procedure, shortened: (§2)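 Sandy loam, greenhouse; one-leaf stage (2–3 wk after sowing); foliar spray of WP or EC, 600–800 l/ha water + 0.2% wetter; visual rating at ~3 wk vs untreated, % effect.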

Amaranthus retroflexus = experiment: Post-emergence herbicidal action, AMARE; set-up: key: % herbicidal action vs untreated; 100 = plants died, 0 = like control
Procedure, shortened: as §2

Matricaria inodora = experiment: Post-emergence herbicidal action, MATIN; set-up: key: % herbicidal action vs untreated; 100 = plants died, 0 = like control
Procedure, shortened: as §2

Viola tricolor = experiment: Post-emergence herbicidal action, VIOTR; set-up: key: % herbicidal action vs untreated; 100 = plants died, 0 = like control
Procedure, shortened: as §2

[1] = comparative experiment, post-emergence, 5 g of a.i./ha

| SMILES | herbicidal activity SETVI (Setaria viridis) [%] | herbicidal activity VERPE (Veronica persica; dosage 320 g/ha) [%] | herbicidal action AMARE (Amaranthus retroflexus; Dosage 80 g/ha) | herbicidal action MATIN (Matricaria inodora; Dosage 80 g/ha) | herbicidal action VIOTR (Viola tricolor; Dosage 80 g/ha) | also measured |
| --- | --- | --- | --- | --- | --- | --- |
| CCn1nnnc1NC(=O)c1ccc(C(F)F)c(CSC)c1C [Example 2-107] | 100 | 100 | 90 | 90 | 100 | herbicidal action ALOMY (Alopecurus myosuroides; Dosage 80 g/ha): 80 |
| Cc1c(C(=O)Nc2nnnn2C)ccc(C(F)F)c1CS(C)(=O)=O [Example 1-109] | 100 | 80 | 100 | 100 | 100 | Herbicidal action against AMARE (Amaranthus retroflexus; [1]): 100 |
| Cn1nnnc1NC(=O)c1ccc(C(F)(F)F)c(CS(C)(=O)=O)c1F [Example 1-244] | 100 | 100 | 90 | 100 | 100 | – |
| CCCn1nnnc1NC(=O)c1ccc(C(F)F)c(CSC)c1Cl [Example 3-320] | 100 | 100 | 80 | 100 | 100 | herbicidal action ALOMY (Alopecurus myosuroides; Dosage 80 g/ha): 80 |
| Cn1nnnc1NC(=O)c1ccc(C(F)(F)F)c(C[S+](C)[O-])c1F (centres unmarked) [Example 1-243] | 100 | 100 | 90 | 100 | 100 | – |
| Cc1ccc(C(=O)Nc2nnnn2C)c(Cl)c1CS(C)(=O)=O [Example 1-289] | 90 | 100 | 100 | 100 | 100 | herbicidal action ALOMY (Alopecurus myosuroides; Dosage 80 g/ha): 80 |
| CCCn1nnnc1NC(=O)c1ccc(C(F)(F)F)c(C[S+](C)[O-])c1Br (centres unmarked) [Example 3-381] | 90 | 100 | – | – | – | herbicidal action ALOMY (Alopecurus myosuroides; post-emergence, dosage 80 g/ha): 80%; herbicidal action AMARE (Amaranthus retroflexus; post-emergence, dosage 80 g/ha): 90%; herbicidal action MATIN (Matricaria inodora; post-emergence, dosage 80 g/ha): 90%; herbicidal action VIOTR (Viola tricolor; post-emergence, dosage 80 g/ha): 100% |
| CCCn1nnnc1NC(=O)c1ccc(C(F)(F)F)c(CSCC)c1Cl [Example 3-299] | 100 | 100 | 90 | 100 | 100 | herbicidal action ALOMY (Alopecurus myosuroides; Dosage 80 g/ha): 80 |
| CCCn1nnnc1NC(=O)c1ccc(C(F)(F)F)c(CSC)c1Cl [Example 3-296] | 100 | 100 | 100 | 100 | 100 | herbicidal action ALOMY (Alopecurus myosuroides; Dosage 80 g/ha): 80 |
| COc1c(C(=O)Nc2nnnn2C)ccc(C(F)(F)F)c1CSC [Example 1-134] | 100 | 100 | 100 | 100 | 100 | Herbicidal action against AMARE (Amaranthus retroflexus; post-emergence, dosage 80 g/ha): 100; Herbicidal action against MATIN (Matricaria inodora; [1]): 90; Herbicidal action against MATIN (Matricaria inodora; post-emergence, dosage 80 g/ha): 100; Herbicidal action against VIOTR (Viola tricolor; [1]): 100; Herbicidal action against VIOTR (Viola tricolor; post-emergence, dosage 80 g/ha): 100 |
| CCCn1nnnc1NC(=O)c1ccc(C(F)(F)F)c(CS(=O)(=O)CC)c1C [Example 3-88] | 100 | 100 | 80 | 90 | 100 | – |
| CCCn1nnnc1NC(=O)c1ccc(C(F)(F)F)c(CSC)c1OC [Example 3-134] | 100 | 100 | 100 | 100 | 100 | – |
| CCn1nnnc1NC(=O)c1ccc(C(F)(F)F)c(C[S+](C)[O-])c1OC (centres unmarked) [Example 2-135] | 100 | 100 | 100 | 100 | 100 | – |
| CCCn1nnnc1NC(=O)c1ccc(C(F)F)c(C[S+]([O-])CC)c1Cl (centres unmarked) [Example 3-324] | 100 | – | – | – | 100 | – |
| CSCc1c(C(F)(F)F)ccc(C(=O)Nc2nnnn2C)c1F [Example 1-242] | 100 | 100 | 100 | 90 | 100 | – |
| Cc1c(C(=O)Nc2nnnn2C)ccc(C(F)(F)F)c1CS(C)(=O)=O [Example 1-85] | 100 | 100 | 90 | 100 | 100 | – |
| CCCn1nnnc1NC(=O)c1ccc(C(F)(F)F)c(CS(C)(=O)=O)c1OC [Example 3-136] | 100 | 100 | 100 | – | 100 | herbicidal action ALOMY (Alopecurus myosuroides; Dosage 80 g/ha): 90 |
| CCCn1nnnc1NC(=O)c1ccc(C(F)(F)F)c(CSC)c1Br [Example 3-380] | 100 | 90 | – | 100 | 100 | herbicidal action ALOMY (Alopecurus myosuroides; Dosage 80 g/ha): 80 |
| CCCn1nnnc1NC(=O)c1ccc(C(F)F)c(CSC)c1C [Example 3-107] | 100 | 100 | 90 | 90 | 100 | – |
| Cn1nnnc1NC(=O)c1ccc(Cl)c(CS(C)(=O)=O)c1Cl [Example 1-561] | 100 | 90 | 100 | 100 | 100 | – |
| CCn1nnnc1NC(=O)c1ccc(C(F)(F)F)c(CS(C)(=O)=O)c1OC [Example 2-136] | 80 | 100 | 100 | 100 | 100 | – |
| Cn1nnnc1NC(=O)c1ccc(C(F)(F)F)c(CS(C)(=O)=O)c1Br [Example 1-382, 2-bromo-3-[(methylsulfonyl)methyl]-N-(1-methyl-1H-tetrazol-5-yl)-4-(trifluoromethyl)benzamide] | 100 | 100 | 100 | 100 | 100 | Herbicidal action against VERPE (Veronica persica; comparative experiment, 20 g of a.i./ha): 100 |
| CSCc1c(C(F)F)ccc(C(=O)Nc2nnnn2C)c1C [Example 1-107, 4-(difluoromethyl)-2-methyl-3-[(methylsulfanyl)methyl]-N-(1-methyl-1H-tetrazol-5-yl)benzamide] | 100 | 100 | 90 | 90 | 100 | – |
| CCCn1nnnc1NC(=O)c1ccc(C(F)(F)F)c(CS(=O)(=O)CC)c1Br [Example 3-385] | 100 | 100 | 90 | 90 | 100 | – |
| CCn1nnnc1NC(=O)c1ccc(S(C)(=O)=O)c(CS(C)(=O)=O)c1C [Example 2-39] | – | – | 100 | 80 | 100 | herbicidal action VERPE (Veronica persica; dosage 320 g/ha): 100% |
